Measured values published in patent US12409158B2, “Combination therapy for treating cancer” (GONGWIN BIOPHARM CO., LTD, priority 2022, dated 2025).

Experiments:
Format in all cases: in vivo, BALB/c nude mice
CD44 = test: IHC analysis of CD44 in M5 tumors; settings: relative to the control group
Procedure: (§1) The mice were observed daily for clinical signs, weighed them every three days, and at one month after tumor-cell implantation euthanized them with an overdose of anesthetic combined with carbon dioxide. Immediately before sacrificing the mice, the blood was collected from them under anesthesia for hematological assessment. After euthanizing the mice, the tumors were excised immediately. The tumor specimens were divided into two groups. One group was treated with 10% formalin and embedded the specimens in paraffin. These specimens were investigated by hematoxylin and eosin staining; terminal deoxyribonucleotidyl transferase (TdT)-mediated biotin-16-dUTP nick-end labeling (TUNEL assay; APO-BrdU TUNEL Assay Kit, BD Pharmingen, San Diego, CA, USA); and IHC for IL-1β, TNF-α, TGF-β, and CD44, using primary antibodies against these factors (Merck, Billerica, MA, USA). Protein expression was assessed via IHC with the […] mouse/rabbit polymer detection system produced by BioTnA (Kaohsiung, Taiwan). A high-resolution digital microscope (Moticam 2300, Motic Instruments, Richmond, Canada) equipped with Motic Images Plus (version 2.0) was used to capture and analyze the images. The other groups of tumor specimens were first minced coarsely and homogenized, and then stored in a freezer at -80° C.

TNF-α = test: IHC analysis of TNF-α in M5 tumors; settings: relative to the control group
Procedure: as §1

cleaved caspase 3 = test: Western blot of cleaved caspase 3 in M5 tumors; settings: vs control group
Procedure: as §1, with “[…] Protein expression and phosphorylation were quantified with ImageJ (National Institutes” for “The other groups”, “Health, Bethesda, […], USA).” for “tumor specimens were first minced coarsely and homogenized, and then stored in a freezer at -80° C.”

IL-1β = test: IHC analysis of IL-1β in M5 tumors; settings: relative to the control group
Procedure: as §1

phosphorylated ERK = test: Western blot of phosphorylated ERK in M5 tumors; settings: vs control group
Procedure: as §1, with “[…] Protein expression and phosphorylation were quantified with ImageJ (National Institutes” for “The other groups”, “Health, Bethesda, […], USA).” for “tumor specimens were first minced coarsely and homogenized, and then stored in a freezer at -80° C.”

TGF-β = test: IHC analysis of TGF-β in M5 tumors; settings: relative to the control group
Procedure: as §1

IL-6 = test: ELISA of serum IL-6 in M5 tumor-bearing mice; settings: relative to the control group
Procedure: The serum levels of IL-6 in the blood samples were measured using commercial mouse kits (ab213749 and ab100697; Abcam, Cambridge, MA, USA) according to the manufacturer's protocol. 50 μl of samples were added to each of the wells in 96-well antibody-coated plates and then incubated for 2 hours at room temperature. 50 μl of the detector antibody solution was loaded into each well and incubated the plates for a further 1 hour at room temperature. Next, […] of HRP-Streptavidin solution (ab210901, Abcam) was added to each well, and once again incubated the plates for 1 hour at room temperature. Finally, 100 μl of tetramethylbenzidine substrate was added to each well and incubated the plates for another 10 min in the dark, again at room temperature. The reaction was stopped by adding 100 μl of stop solution. The wavelength of absorbance was at 450 nm and results were expressed in pg/ml.

CD45 = test: IHC analysis of CD45 in M5 tumors; settings: IHC staining, FIGS. 11A and 11B

N.N.[Cl][Pt][Cl] [Cisplatin, cisplatin, reference compound]
CD44 expression reduction (CD44): about 40.9%
TNF-α activity reduction (TNF-α): 77.4%
cleaved caspase 3 expression (cleaved caspase 3): significantly higher
IL-1β activity reduction (IL-1β): 29.7%
phosphorylated ERK expression (phosphorylated ERK): significantly higher
TGF-β expression reduction (TGF-β): about 26.6%
serum IL-6 expression reduction (IL-6): 62.8%
CD45 activity, times higher than the control group (CD45): 1.4 times

Cc1ccc(S(N)(=O)=O)cc1 [PTS, p-Toluenesulfonamide]
CD44 expression reduction (CD44): ~34.4%
TNF-α activity reduction (TNF-α): 73.0%
cleaved caspase 3 expression (cleaved caspase 3): significantly higher
IL-1β activity reduction (IL-1β): 26.5%
phosphorylated ERK expression (phosphorylated ERK): significantly higher
TGF-β expression reduction (TGF-β): ~23.3%
serum IL-6 expression reduction (IL-6): 57.5%
CD45 activity, times higher than the control group (CD45): 1.3 times
